ChEMBL document CHEMBL2029275, “Structure-activity relationship of a series of non peptidic RGD integrin antagonists targeting α5β1: part 2” (Bioorg Med Chem Lett, 2012)

Legend:
Integrin alpha-5/beta-1 [1] = target: T1, Integrin alpha-5/beta-1 (Homo sapiens, UniProt P05556+P08648); test: Binding affinity to integrin alpha5beta1; type: protein-complex assay
Integrin alpha-5/beta-1 [2] = target: T1, Integrin alpha-5/beta-1; test: Antagonist activity at integrin alpha5beta1 in human K562 cells assessed as inhibition of cell adhesion; type: functional, cell-based
Integrin alpha-5/beta-1 [3] = target: T1, Integrin alpha-5/beta-1; test: Antagonist activity at integrin alpha5beta1 in human K562 cells assessed as inhibition of cell adhesion in presence of human serum albumin; type: functional, cell-based
Rattus norvegicus = organism: Rattus norvegicus; test: Free drug level in rat; type: ADME, organism-based; settings: in vivo
Integrin alpha-V/beta-3 = Integrin alpha-V/beta-3 (Homo sapiens, UniProt P05106+P06756); test: Antagonist activity at integrin alphaVbeta3 in human A375M cells assessed as cell adhesion to fibrinogen in presence of Mg2+; type: functional, cell-based
Chain of Integrin alpha-V/beta-3 (P05106 27-788 limits assumed): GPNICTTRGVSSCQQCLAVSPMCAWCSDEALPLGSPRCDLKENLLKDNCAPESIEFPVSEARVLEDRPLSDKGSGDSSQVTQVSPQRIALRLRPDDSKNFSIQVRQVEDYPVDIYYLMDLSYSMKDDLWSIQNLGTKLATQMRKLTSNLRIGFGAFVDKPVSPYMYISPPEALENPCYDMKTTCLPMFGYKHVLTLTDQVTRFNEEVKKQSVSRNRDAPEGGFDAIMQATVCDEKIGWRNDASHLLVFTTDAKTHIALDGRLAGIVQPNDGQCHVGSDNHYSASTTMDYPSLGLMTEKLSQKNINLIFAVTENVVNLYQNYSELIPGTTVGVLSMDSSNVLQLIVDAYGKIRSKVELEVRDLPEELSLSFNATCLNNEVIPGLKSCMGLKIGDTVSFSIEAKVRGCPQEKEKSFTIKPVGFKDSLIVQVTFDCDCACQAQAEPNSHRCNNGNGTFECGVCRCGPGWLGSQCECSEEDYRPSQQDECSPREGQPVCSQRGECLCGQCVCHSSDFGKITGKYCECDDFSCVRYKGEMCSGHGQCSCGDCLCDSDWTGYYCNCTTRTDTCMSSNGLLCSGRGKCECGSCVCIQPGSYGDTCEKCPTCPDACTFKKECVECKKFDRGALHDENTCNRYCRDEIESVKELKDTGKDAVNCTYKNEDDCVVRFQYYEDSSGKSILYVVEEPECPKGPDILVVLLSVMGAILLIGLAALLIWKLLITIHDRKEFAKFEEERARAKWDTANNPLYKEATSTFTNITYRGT
Chain of Integrin alpha-V/beta-3 (P06756 31-889 limits assumed): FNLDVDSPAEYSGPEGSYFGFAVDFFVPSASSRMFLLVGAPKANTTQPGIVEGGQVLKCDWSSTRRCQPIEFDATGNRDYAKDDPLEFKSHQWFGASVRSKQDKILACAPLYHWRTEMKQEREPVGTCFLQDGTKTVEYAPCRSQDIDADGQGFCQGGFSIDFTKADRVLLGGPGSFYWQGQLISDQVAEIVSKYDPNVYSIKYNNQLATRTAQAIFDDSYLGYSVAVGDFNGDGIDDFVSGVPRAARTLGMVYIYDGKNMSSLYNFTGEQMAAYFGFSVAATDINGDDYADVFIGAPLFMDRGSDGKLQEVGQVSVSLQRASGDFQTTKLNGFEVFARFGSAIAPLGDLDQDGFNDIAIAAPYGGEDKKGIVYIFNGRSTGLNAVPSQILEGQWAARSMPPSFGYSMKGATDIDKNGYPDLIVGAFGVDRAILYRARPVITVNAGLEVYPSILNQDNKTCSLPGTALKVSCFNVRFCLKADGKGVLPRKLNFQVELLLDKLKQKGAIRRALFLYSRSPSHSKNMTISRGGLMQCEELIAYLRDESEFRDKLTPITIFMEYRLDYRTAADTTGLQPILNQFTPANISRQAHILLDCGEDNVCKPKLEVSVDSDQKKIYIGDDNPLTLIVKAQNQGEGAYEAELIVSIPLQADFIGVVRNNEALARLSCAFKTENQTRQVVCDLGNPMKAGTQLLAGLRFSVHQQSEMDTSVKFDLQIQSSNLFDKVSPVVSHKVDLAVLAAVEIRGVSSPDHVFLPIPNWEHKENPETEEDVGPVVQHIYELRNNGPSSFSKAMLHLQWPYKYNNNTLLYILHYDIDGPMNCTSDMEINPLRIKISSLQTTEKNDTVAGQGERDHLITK
Chain of Integrin alpha-V/beta-3 (P06756 891-1048 limits assumed): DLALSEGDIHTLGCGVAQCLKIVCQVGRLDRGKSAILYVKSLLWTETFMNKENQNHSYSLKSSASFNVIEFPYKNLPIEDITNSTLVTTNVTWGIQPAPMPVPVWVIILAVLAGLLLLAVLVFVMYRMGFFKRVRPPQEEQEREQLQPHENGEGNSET

[4] = target: Fibronectin receptor (Integrin alpha-5/beta-1 and alpha-V/beta-3) (Homo sapiens, UniProt P05106+P05556+P06756+P08648); test: Antagonist activity at integrin alphavbeta3alpha5beta1 in human A375M cells assessed as inhibition of cell adhesion to fibronectin in presence of Mg2+; type: functional, cell-based
Integrin alpha-5/beta-1 [5] = target: T1, Integrin alpha-5/beta-1; test: Antagonist activity at integrin alpha5beta1 in human A375M cells assessed as inhibition of cell adhesion in presence of Mg2+ and MK-0429; type: functional, cell-based
A375M = test: Selectivity ratio of IC50 for integrin alphavbeta3alpha5beta1-mediated human A375M cells adhesion to fibronectin in absence of MK-0429 to IC50 for integrin alpha5beta1-mediated human A375M cells adhesion to fibronectin in presence of MK-0429; type: cell-based
Homo sapiens = organism: Homo sapiens; test: Free drug level in human; type: ADME, organism-based; settings: in vivo

T1 sequence (P05556 21-798 limits assumed): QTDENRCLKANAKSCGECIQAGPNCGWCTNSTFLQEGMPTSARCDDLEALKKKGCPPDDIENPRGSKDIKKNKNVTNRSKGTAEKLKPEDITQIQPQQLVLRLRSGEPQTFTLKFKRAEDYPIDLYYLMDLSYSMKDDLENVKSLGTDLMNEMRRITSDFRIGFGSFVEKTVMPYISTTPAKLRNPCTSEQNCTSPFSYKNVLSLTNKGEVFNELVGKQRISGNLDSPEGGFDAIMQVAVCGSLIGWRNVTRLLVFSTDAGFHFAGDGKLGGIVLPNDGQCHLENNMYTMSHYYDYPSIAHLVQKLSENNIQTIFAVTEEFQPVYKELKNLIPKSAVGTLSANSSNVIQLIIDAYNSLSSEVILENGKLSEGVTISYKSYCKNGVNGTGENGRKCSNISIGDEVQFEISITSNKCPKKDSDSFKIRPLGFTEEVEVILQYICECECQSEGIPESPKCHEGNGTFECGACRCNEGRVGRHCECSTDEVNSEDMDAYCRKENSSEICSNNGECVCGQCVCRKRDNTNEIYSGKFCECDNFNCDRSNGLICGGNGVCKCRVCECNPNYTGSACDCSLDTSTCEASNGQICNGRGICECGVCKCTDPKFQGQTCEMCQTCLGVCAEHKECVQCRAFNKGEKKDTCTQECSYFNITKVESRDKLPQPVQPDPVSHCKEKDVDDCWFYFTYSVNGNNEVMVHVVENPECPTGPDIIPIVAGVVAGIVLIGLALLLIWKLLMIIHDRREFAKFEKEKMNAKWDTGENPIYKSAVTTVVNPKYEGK
T1 sequence (P08648 42-894 limits assumed): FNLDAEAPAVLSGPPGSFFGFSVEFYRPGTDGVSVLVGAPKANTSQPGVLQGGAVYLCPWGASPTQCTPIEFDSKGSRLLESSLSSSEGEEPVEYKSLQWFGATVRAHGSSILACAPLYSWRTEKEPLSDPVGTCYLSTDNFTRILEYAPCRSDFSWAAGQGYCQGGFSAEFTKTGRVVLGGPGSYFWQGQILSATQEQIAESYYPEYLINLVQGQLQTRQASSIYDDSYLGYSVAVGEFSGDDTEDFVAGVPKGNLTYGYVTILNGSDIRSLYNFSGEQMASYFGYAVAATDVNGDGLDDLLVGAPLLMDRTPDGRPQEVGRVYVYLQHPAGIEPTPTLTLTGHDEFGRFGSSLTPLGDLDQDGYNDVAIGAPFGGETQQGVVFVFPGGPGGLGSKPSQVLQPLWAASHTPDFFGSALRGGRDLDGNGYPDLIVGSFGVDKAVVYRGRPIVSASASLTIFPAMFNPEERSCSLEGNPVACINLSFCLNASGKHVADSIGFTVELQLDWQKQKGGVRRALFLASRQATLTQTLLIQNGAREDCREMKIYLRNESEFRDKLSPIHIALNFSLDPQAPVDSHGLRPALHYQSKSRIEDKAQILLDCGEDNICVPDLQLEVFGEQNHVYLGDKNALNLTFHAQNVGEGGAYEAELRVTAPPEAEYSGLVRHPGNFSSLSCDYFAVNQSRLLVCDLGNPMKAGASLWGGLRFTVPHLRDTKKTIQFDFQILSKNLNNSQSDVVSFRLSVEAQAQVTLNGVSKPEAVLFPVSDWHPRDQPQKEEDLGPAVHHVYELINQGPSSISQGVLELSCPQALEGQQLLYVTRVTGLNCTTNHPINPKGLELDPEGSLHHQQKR
T1 sequence (P08648 895-1049 limits assumed): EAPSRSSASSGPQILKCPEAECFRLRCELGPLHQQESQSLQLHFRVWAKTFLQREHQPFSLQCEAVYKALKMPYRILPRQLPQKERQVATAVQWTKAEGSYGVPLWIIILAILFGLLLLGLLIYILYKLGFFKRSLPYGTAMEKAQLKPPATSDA

SMILES	IC50 (Integrin alpha-5/beta-1 [1]) [nM]	IC50 (Integrin alpha-5/beta-1 [2]) [nM]	IC50 (Integrin alpha-5/beta-1 [3]) [nM]	Drug uptake(free) (Rattus norvegicus) [%]	IC50 (Integrin alpha-V/beta-3) [nM]	IC50 [4] [nM]	IC50 (Integrin alpha-5/beta-1 [5]) [nM]	Ratio IC50 (A375M)	Drug uptake(free) (Homo sapiens) [%]
CNc1cccc(CCCc2ccc(C[C@H](NC(=O)c3c(Cl)cccc3Cl)C(=O)O)nc2)n1	9	110	–	–	–	–	–	–	–
CNc1cccc(CCOc2ccc(C[C@H](NC(=O)C3CCCCC3C)C(=O)O)cc2)n1 (stereo partly drawn)	–	71	29000	0.9	960	960	420	2.3	–
COc1ccc([C@H](CC(=O)O)N2CCN(CCCc3ccc4c(n3)NCCC4)C2=O)cn1	–	4600	–	–	0.3	810	2200	0.4	–
O=C(N[C@@H](Cc1ccc(OCCCNc2ccccn2)cc1)C(=O)O)c1c(Cl)cccc1Cl	11	120	–	–	2600	2500	610	4.2	–
CNc1cccc(CCOc2ccc(C[C@H](NC(=O)c3c(C)noc3C)C(=O)O)cc2)n1	–	–	–	3.8	–	–	–	–	–
CNc1cccc(CCOc2ccc(C[C@H](NC(=O)c3c(C)cccc3C)C(=O)O)cc2)n1	1	< 23	420	2.2	400	400	90	4.5	–
CNc1cccc(CCCc2ccc(C[C@H](NC(=O)c3c(Cl)cccc3Cl)C(=O)O)cc2)n1	8	46	–	–	–	–	–	–	–
CNc1cccc(CCOc2ccc(C[C@H](NC(=O)c3c(Cl)cccc3Cl)C(=O)O)cc2C)n1	3	81	–	–	600	640	180	3.6	–
CNc1cccc(CCOc2ccc(C[C@H](NC(=O)c3ccc(F)cc3Cl)C(=O)O)cc2)n1	2	33	11000	0.3	440	440	210	2.1	0.2
CNc1cccc(CCCc2ccc(C[C@H](NC(=O)c3c(Cl)cccc3Cl)C(=O)O)cn2)n1	5	76	–	–	–	–	–	–	–
CNc1cccc(CCOc2ccc(C[C@H](NC(=O)c3sccc3Cl)C(=O)O)cc2)n1	–	52	36000	0.2	2900	2900	2700	1.1	0.1
CNc1cccc(CCOc2csc(C[C@H](NC(=O)c3c(Cl)cccc3Cl)C(=O)O)c2)n1	110	510	–	–	–	–	–	–	–
O=C(N[C@@H](Cc1cccc(OCCCCNc2ccccn2)c1)C(=O)O)c1c(Cl)cccc1Cl	1900	83000	–	–	–	–	–	–	–
CNc1cccc(CCOc2ccc(C[C@H](NC(=O)c3c(Cl)cccc3Cl)C(=O)O)cc2F)n1	2	47	–	–	290	330	76	4.3	–
CNc1cccc(CCOc2ccc(C[C@H](NC(=O)c3c(F)cccc3Cl)C(=O)O)cc2)n1	< 1	19	1500	0.5	280	280	160	1.7	0.6
CCc1cc(F)ccc1C(=O)N[C@@H](Cc1ccc(OCCc2cccc(NC)n2)cc1)C(=O)O	4	24	5000	0.4	340	340	200	1.7	–

SMILES	IC50 (Integrin alpha-5/beta-1 [1]) [nM]	IC50 (Integrin alpha-5/beta-1 [2]) [nM]	IC50 (Integrin alpha-5/beta-1 [3]) [nM]	Drug uptake(free) (Rattus norvegicus) [%]	IC50 (Integrin alpha-V/beta-3) [nM]	IC50 [4] [nM]	IC50 (Integrin alpha-5/beta-1 [5]) [nM]	Ratio IC50 (A375M)	Drug uptake(free) (Homo sapiens) [%]
CNc1cccc(CCOc2c(C)cc(C[C@H](NC(=O)c3c(Cl)cccc3Cl)C(=O)O)cc2C)n1	21	610	–	–	8800	8800	5800	1.5	–
O=C(N[C@@H](Cc1ccc(OCCNc2ccccn2)cc1)C(=O)O)c1c(Cl)cccc1Cl	82	2500	–	–	–	–	–	–	–
CNc1cccc(CCOc2ccc(C[C@H](NC(=O)c3c(C)cc(C)cc3C)C(=O)O)cc2)n1	1	22	1500	0.5	370	380	57	6.7	–
CNc1cccc(CCOc2ccc(C[C@H](NC(=O)c3ccccc3)C(=O)O)cc2)n1	49	430	–	–	6700	7400	5400	1.4	–
CNc1cccc(CCOc2ccc(C[C@H](NC(=O)c3c(Cl)cccc3Cl)C(=O)O)nc2)n1	1	26	–	–	620	510	84	6.1	–
CNc1cccc(CCOc2ccc(C[C@H](NC(=O)c3c(Cl)cccc3Cl)C(=O)O)cn2)n1	6	110	–	–	1200	1200	570	2.1	–
CNc1cccc(CCOc2ccc(C[C@H](NC(=O)c3ccc(F)cc3C3CC3)C(=O)O)cc2)n1	3	39	7700	0.4	520	510	250	2	–
CNc1cccc(CCOc2ccc(C[C@H](NC(=O)c3c(Cl)cncc3Cl)C(=O)O)cc2)n1	< 1	< 4	55	3.3	130	130	52	2.6	2.4
CNc1cccc(CCOc2ccc(C[C@H](NC(=O)c3ccc(F)cc3OC)C(=O)O)cc2)n1	130	820	> 100000	–	8300	8300	6500	1.3	–
CNc1cccc(CCCc2csc(C[C@H](NC(=O)c3c(Cl)cccc3Cl)C(=O)O)c2)n1	180	400	–	–	–	–	–	–	–
CNc1cccc(CCCc2ccc(C[C@H](NC(=O)c3c(Cl)cccc3Cl)C(=O)O)s2)n1	–	–	–	–	790	800	180	4.4	–
CNc1cccc(CCOc2ccc(C[C@H](NC(=O)c3ccc(F)cc3C)C(=O)O)cc2)n1	9	36	24000	0.5	510	510	470	1.1	–
O=C(N[C@@H](Cc1cccc(OCCNc2ccccn2)c1)C(=O)O)c1c(Cl)cccc1Cl	5900	> 290000	–	–	–	–	–	–	–
CNc1cccc(CCOc2ccc(C[C@H](NC(=O)C3(C)CCCCC3)C(=O)O)cc2)n1	–	39	7500	0.9	830	830	480	1.8	0.25
O=C(N[C@@H](Cc1ccc2oc(CCNc3ccccn3)cc2c1)C(=O)O)c1c(Cl)cccc1Cl	890	4000	–	–	–	–	–	–	–
O=C(N[C@@H](Cc1cccc(OCCCNc2ccccn2)c1)C(=O)O)c1c(Cl)cccc1Cl	–	20000	–	–	–	–	–	–	–
